From patent US10760110B2, “Antibiotic testing and screening system” (priority 2017, dated 2020)
Converted amounts (≈) assume the structure as drawn. Read-outs that look alike come from different tables or passages of the source.

Legend:
Settings in all cases: Klebsiella pneumoniae
[1] = tested on: K. pneumoniae NVT1001 and its ΔompK35/36 and/or ΔramR mutants; test: Etest MIC, OmpK35/36 loss and AcrAB-TolC overexpression (ΔramR) strains (Table 6); format: cell-based, Klebsiella pneumoniae
Summary of the method: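 Etest strips per kit instructions; off-scale intermediate readings rounded upward to the nearest two-fold concentration. Broth microdilution (CLSI) for ceftazidime, cefotaxime only. Breakpoints: CLSI 2017 generally, CLSI 2015 for cephalothin, EUCAST 2017 for moxifloxacin.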

[2] = tested on: K. pneumoniae NVT1001 ΔramRΔompK35/36 mutant and its revertants; test: Etest MIC, ΔramRΔompK35/36 mutant and its revertants (Table 7); format: cell-based
[3] = tested on: K. pneumoniae NVT1001 strains with carbapenemase plasmids; test: Etest MIC of β-lactams, OmpK35/36 loss, ΔramR and/or carbapenemase (Table 9); format: cell-based, Klebsiella pneumoniae
Description: DNA fragments of the resistance genes along with their flanking regions were amplified from clinical plasmids via PCR with specific primer pairs. The resulting PCR fragments were digested and then cloned into the plasmid pACYC177 or pACYC184. The resulting plasmids were then transformed into K. pneumoniae strain NVT1001 via electroporation. The recombinant bacteria were plated onto LB agar plates containing kanamycin (50 mg/L) or chloramphenicol (50 mg/L), and the presence of the cloned gene was confirmed via PCR and DNA sequencing.
The MICs of antibiotics were determined using the Etest (Biodisk AB, Sweden) according to the manufacturer's instructions. The MICs from the Etest, which fall between standard two-fold dilutions, were rounded up to the next highest two-fold value. The MICs of ceftazidime and cefotaxime against K. pneumoniae NVT1001 harbouring the pACYC177 plasmid with blaOXA-48 were further determined using a broth microdilution test according to the recommendations of the CLSI,^25 and the results were interpreted according to the breakpoints established by the CLSI in 2017.^25 Meanwhile, due to the lack of CLSI breakpoints in 2016 and 2017, the results for cephalothin were interpreted according to the breakpoints established by the CLSI in 2015,^26 and the results for moxifloxacin were interpreted according to the breakpoints established by the EUCAST in 2017.^27

## C[C@@H](O)[C@H]1C(=O)N2C(C(=O)O)=C(SCCN=CN)C[C@H]12 [Imipenem]
[1]; WT, NVT1001, read-out: MIC
  MIC: 0.5 µg/mL (≈ 1.67 µM)
[1]; Δ35, ΔompK35 mutant
  MIC: 0.5 µg/mL (≈ 1.67 µM)
[1]; Δ35/36, ΔompK35/36 mutant
  MIC: 0.5 µg/mL (≈ 1.67 µM)
[1]; Δ36, ΔompK36 mutant
  MIC: 0.5 µg/mL (≈ 1.67 µM)
[1]; ΔramR mutant
  MIC: 0.25 µg/mL (≈ 0.835 µM)
[1]; ΔramRΔ35, ΔramRΔompK35 mutant
  MIC: 0.25 µg/mL (≈ 0.835 µM)
[1]; ΔramRΔ35/36, ΔramRΔompK35/36 mutant
  MIC: 0.5 µg/mL (≈ 1.67 µM)
[1]; ΔramRΔ36, ΔramRΔompK36 mutant
  MIC: 0.5 µg/mL (≈ 1.67 µM)
[2]; ΔramRΔompK35/36::ompK35/36 revertant
  MIC: 0.25 µg/mL
[2]; ΔramRΔompK35/36::ompK35 revertant
  MIC: 0.25 µg/mL
[2]; ΔramRΔompK35/36::ompK36 revertant
  MIC: 0.25 µg/mL
[2]; ΔramRΔompK35/36::ramR revertant
  MIC: 0.5 µg/mL
[2]; ΔramRΔompK35/36::ramR::ompK35/36 revertant
  MIC: 0.5 µg/mL
[2]; ΔramRΔompK35/36::ramR::ompK35 revertant
  MIC: 0.25 µg/mL
[2]; ΔramRΔompK35/36::ramR::ompK36 revertant
  MIC: 0.25 µg/mL
[2]; ΔramRΔompK35/36 mutant
  MIC: 0.5 µg/mL
[3]; IMP-8 on pACYC177, WT (NVT1001), read-out: MIC
  MIC: 4 µg/mL
[3]; IMP-8 on pACYC177, Δ35 (ΔompK35 mutant)
  MIC: 4 µg/mL
[3]; IMP-8 on pACYC177, Δ35/36 (ΔompK35/36 mutant)
  MIC: > 32 µg/mL
[3]; IMP-8 on pACYC177, Δ36 (ΔompK36 mutant)
  MIC: 8 µg/mL
[3]; IMP-8 on pACYC177, ΔramR mutant
  MIC: 4 µg/mL
[3]; IMP-8 on pACYC177, ΔramRΔ35 (ΔramRΔompK35 mutant)
  MIC: 4 µg/mL
[3]; IMP-8 on pACYC177, ΔramRΔ35/36 (ΔramRΔompK35/36 mutant)
  MIC: > 32 µg/mL
[3]; IMP-8 on pACYC177, ΔramRΔ36 (ΔramRΔompK36 mutant)
  MIC: > 32 µg/mL
[3]; KPC-2 on pACYC177, WT (NVT1001), read-out: MIC
  MIC: > 32 µg/mL
[3]; KPC-2 on pACYC177, Δ35 (ΔompK35 mutant)
  MIC: > 32 µg/mL
[3]; KPC-2 on pACYC177, Δ35/36 (ΔompK35/36 mutant)
  MIC: > 32 µg/mL
[3]; KPC-2 on pACYC177, Δ36 (ΔompK36 mutant)
  MIC: > 32 µg/mL
[3]; KPC-2 on pACYC177, ΔramR mutant
  MIC: > 32 µg/mL
[3]; KPC-2 on pACYC177, ΔramRΔ35 (ΔramRΔompK35 mutant)
  MIC: > 32 µg/mL
[3]; KPC-2 on pACYC177, ΔramRΔ35/36 (ΔramRΔompK35/36 mutant)
  MIC: > 32 µg/mL
[3]; KPC-2 on pACYC177, ΔramRΔ36 (ΔramRΔompK36 mutant)
  MIC: > 32 µg/mL
[3]; KPC-3 on pACYC177, WT (NVT1001), read-out: MIC
  MIC: 32 µg/mL
[3]; KPC-3 on pACYC177, Δ35 (ΔompK35 mutant)
  MIC: > 32 µg/mL
[3]; KPC-3 on pACYC177, Δ35/36 (ΔompK35/36 mutant)
  MIC: > 32 µg/mL
[3]; KPC-3 on pACYC177, Δ36 (ΔompK36 mutant)
  MIC: > 32 µg/mL
[3]; KPC-3 on pACYC177, ΔramR mutant
  MIC: 32 µg/mL
[3]; KPC-3 on pACYC177, ΔramRΔ35 (ΔramRΔompK35 mutant)
  MIC: 32 µg/mL
[3]; KPC-3 on pACYC177, ΔramRΔ35/36 (ΔramRΔompK35/36 mutant)
  MIC: > 32 µg/mL
[3]; KPC-3 on pACYC177, ΔramRΔ36 (ΔramRΔompK36 mutant)
  MIC: > 32 µg/mL
[3]; NDM-1 on pACYC177, WT (NVT1001), read-out: MIC
  MIC: > 32 µg/mL
[3]; NDM-1 on pACYC177, Δ35 (ΔompK35 mutant)
  MIC: > 32 µg/mL
[3]; NDM-1 on pACYC177, Δ35/36 (ΔompK35/36 mutant)
  MIC: > 32 µg/mL
[3]; NDM-1 on pACYC177, Δ36 (ΔompK36 mutant)
  MIC: > 32 µg/mL
[3]; NDM-1 on pACYC177, ΔramR mutant
  MIC: > 32 µg/mL
[3]; NDM-1 on pACYC177, ΔramRΔ35 (ΔramRΔompK35 mutant)
  MIC: > 32 µg/mL
[3]; NDM-1 on pACYC177, ΔramRΔ35/36 (ΔramRΔompK35/36 mutant)
  MIC: > 32 µg/mL
[3]; NDM-1 on pACYC177, ΔramRΔ36 (ΔramRΔompK36 mutant)
  MIC: > 32 µg/mL
[3]; OXA-48 on pACYC177, WT (NVT1001), read-out: MIC
  MIC: 4 µg/mL
[3]; OXA-48 on pACYC177, Δ35 (ΔompK35 mutant)
  MIC: 4 µg/mL
[3]; OXA-48 on pACYC177, Δ35/36 (ΔompK35/36 mutant)
  MIC: > 32 µg/mL
[3]; OXA-48 on pACYC177, Δ36 (ΔompK36 mutant)
  MIC: 8 µg/mL
[3]; OXA-48 on pACYC177, ΔramR mutant
  MIC: 4 µg/mL
[3]; OXA-48 on pACYC177, ΔramRΔ35 (ΔramRΔompK35 mutant)
  MIC: 4 µg/mL
[3]; OXA-48 on pACYC177, ΔramRΔ35/36 (ΔramRΔompK35/36 mutant)
  MIC: > 32 µg/mL
[3]; OXA-48 on pACYC177, ΔramRΔ36 (ΔramRΔompK36 mutant)
  MIC: > 32 µg/mL
[3]; VIM-1 on pACYC177, WT (NVT1001), read-out: MIC
  MIC: 16 µg/mL
[3]; VIM-1 on pACYC177, Δ35 (ΔompK35 mutant)
  MIC: 32 µg/mL
[3]; VIM-1 on pACYC177, Δ35/36 (ΔompK35/36 mutant)
  MIC: > 32 µg/mL
[3]; VIM-1 on pACYC177, Δ36 (ΔompK36 mutant)
  MIC: > 32 µg/mL
[3]; VIM-1 on pACYC177, ΔramR mutant
  MIC: 16 µg/mL
[3]; VIM-1 on pACYC177, ΔramRΔ35 (ΔramRΔompK35 mutant)
  MIC: 16 µg/mL
[3]; VIM-1 on pACYC177, ΔramRΔ35/36 (ΔramRΔompK35/36 mutant)
  MIC: > 32 µg/mL
[3]; VIM-1 on pACYC177, ΔramRΔ36 (ΔramRΔompK36 mutant)
  MIC: > 32 µg/mL
[3]; no supplemental plasmid, WT (NVT1001), read-out: MIC
  MIC: 0.5 µg/mL
[3]; no supplemental plasmid, Δ35 (ΔompK35 mutant)
  MIC: 0.5 µg/mL
[3]; no supplemental plasmid, Δ35/36 (ΔompK35/36 mutant)
  MIC: 0.5 µg/mL
[3]; no supplemental plasmid, Δ36 (ΔompK36 mutant)
  MIC: 0.5 µg/mL
[3]; no supplemental plasmid, ΔramR mutant
  MIC: 0.25 µg/mL
[3]; no supplemental plasmid, ΔramRΔ35 (ΔramRΔompK35 mutant)
  MIC: 0.25 µg/mL
[3]; no supplemental plasmid, ΔramRΔ35/36 (ΔramRΔompK35/36 mutant)
  MIC: 0.5 µg/mL
[3]; no supplemental plasmid, ΔramRΔ36 (ΔramRΔompK36 mutant)
  MIC: 0.5 µg/mL
